Experimental data: paper PMC6934184, “Selective DNA-PKcs inhibition extends the therapeutic index of localized radiotherapy and chemotherapy” (The Journal of Clinical Investigation, 2019)

Biological target: T1, BRSK2 (Homo sapiens, UniProt Q8IWQ3)
T1 construct: purchased Thermo Fisher Scientific (Life Technologies) SelectScreen
Experiment: SelectScreen LanthaScreen
Assay type: binding
Conditions: read-out: % displacement
Outline: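 Percent values come from Thermo SelectScreen profiling of NU5455, combining activity and binding assays. CSF1R was run in Z'LYTE format at Km app ATP, and CAMK1 in Adapta format with ATP listed at 10.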

T1 sequence (Q8IWQ3 whole entry): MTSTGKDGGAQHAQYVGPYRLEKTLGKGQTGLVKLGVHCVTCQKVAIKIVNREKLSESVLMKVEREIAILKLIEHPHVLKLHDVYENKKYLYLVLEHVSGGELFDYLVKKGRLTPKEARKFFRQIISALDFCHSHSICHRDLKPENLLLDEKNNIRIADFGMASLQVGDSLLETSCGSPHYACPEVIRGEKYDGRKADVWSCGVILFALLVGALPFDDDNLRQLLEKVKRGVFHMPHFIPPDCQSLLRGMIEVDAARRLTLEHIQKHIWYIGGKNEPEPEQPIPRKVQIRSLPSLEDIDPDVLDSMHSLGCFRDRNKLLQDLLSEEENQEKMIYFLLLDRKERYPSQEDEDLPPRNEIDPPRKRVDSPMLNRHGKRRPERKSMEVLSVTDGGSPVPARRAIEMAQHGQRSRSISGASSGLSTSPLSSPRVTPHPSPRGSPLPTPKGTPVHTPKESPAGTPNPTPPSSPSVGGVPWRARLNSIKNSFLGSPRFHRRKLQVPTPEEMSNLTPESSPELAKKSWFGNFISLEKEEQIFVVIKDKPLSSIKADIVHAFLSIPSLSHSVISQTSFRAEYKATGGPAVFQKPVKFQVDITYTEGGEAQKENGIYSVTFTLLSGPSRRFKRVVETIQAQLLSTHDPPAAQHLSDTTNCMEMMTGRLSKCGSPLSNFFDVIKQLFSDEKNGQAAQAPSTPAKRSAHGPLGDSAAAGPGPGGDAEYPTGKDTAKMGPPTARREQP

## CN(C(=O)CN1CCOCC1)c1ccc2sc3c(-c4cccc5c(=O)cc(N6CC7CCC(C6)O7)oc45)cccc3c2c1 [NU5455]
  inhibition at 1 µM: 1.2%
